In patent US10004732B2 (Novartis AG, priority 2014, dated 2018):
Where a name gives a salt, the structure may show the parent alone. Read-outs that look alike come from different tables or passages of the source.

Assays:
[1] = molecular target: PI 3-kinase gamma (Homo sapiens, UniProt P48736); assay: TR-FRET Adapta assay, assay E; assay type: biochemical; settings: read-out: Assay E PI3Kγ IC50
[2] = molecular target: Vps34 (Homo sapiens, UniProt Q8NEB9); assay: Kinase Glo Luminescent Kinase Assay (Kglo), assay C; assay type: biochemical; settings: read-out: Assay C VPS34 IC50
[3] = molecular target: PI 3-kinase delta (Homo sapiens, UniProt O00329); assay: TR-FRET Adapta assay, assay F
Protocol: TR-FRET Adapta Assay for PI 3-Kinase Gamma (E), PI 3-Kinase Delta (F)
The TR-FRET Adapta™ Universal Kinase Assay Kit was purchased from Invitrogen Corporation (Carlsbad/CA, USA) (Cat. No. PV5099).
PIK3CD substrate phosphatidylinositol (PI) was obtained from Invitrogen (vesicules consisting of 2 mM phosphatidylinositol (PI) in 50 mM HEPES pH7.5; Cat. No. PV5371). PIK3CG substrate phosphatidylinositol-4,5-bisphosphate (PIP(4,5)2 was obtained from Invitrogen (PIP2:PS large unilamellar vesicules consisting of 1 mM PIP2: 19 mM PS in 50 mM HEPES pH7.5, 3 mM MgCl2, 1 mM EGTA; Cat. No. PV5100).
Time-Resolved Fluorescence Resonance Energy Transfer (TR-FRET) is a technology based on energy transfer between two adjacent dyes, from an excited electron in one dye (the donor) to an electron of an adjacent dye (the acceptor) through resonance, then released as a photon. This energy transfer is detected by an increase in the fluorescence emission of the acceptor, and a decrease in the fluorescence emission of the donor. TR-FRET assays for protein kinases use a long-lifetime lanthanide Terbium or Europium chelates as the donor species which overcome interference from compound autofluorescence or light scatter from precipitated compounds, by introducing a delay after excitation by a flashlamp excitation source. Results are often expressed as a ratio of the intensities of the acceptor and donor fluorophores. The ratiometric nature of such a value corrects for differences in assay volumes between wells, as well as corrects for quenching effects due to colored compounds. The Adapta™ assay can be divided into two phases: a kinase reaction phase and an ADP detection phase. In the kinase reaction phase, all kinase reaction components are added to the well and the reaction is allowed to incubate for a set period of time specific for each kinase. […] In the presence of an inhibitor, the amount of ADP formed by the kinase reaction is reduced, and the resulting intact antibody-tracer interaction maintains a high TR-FRET signal.
50 nL of compound dilutions were dispensed onto white 384-well small volume polystyrene plate. Then 5 μL of either PI 3-kinase gamma or PI 3-kinase delta and lipid substrate (PI or PIP2:PS) followed by 5 μL of ATP (final assay volume 10 μL) are incubated at RT. The standard reaction buffer for the Adapta™ TR-FRET assay contained 10 mM Tris-HCl pH 7.5, 3 mM MgCl2, 50 mM NaCl, 1 mM DTT, 0.05% CHAPS 3-[(3-cholamidopropyl)dimethylammonio]-1-propanesulfonate).
Data are analyzed using Excel fit software or Graphpad Prism. IC50 values were derived by fitting a sigmoidal dose-response curve to a plot of assay readout over inhibitor concentration. All fits were performed with the program XLfit4 (ID Business Solutions, Guildford, UK). […] All fits were performed with the program XLfit4 (ID Business Solutions, Guildford, UK).

[4] = molecular target: PI 3-kinase alpha (Homo sapiens, UniProt P42336); assay: Kinase Glo Luminescent Kinase Assay (Kglo), assay A; assay type: biochemical; settings: read-out: Assay A PI3Kα IC50
[5] = molecular target: PI 3-kinase beta (Homo sapiens, UniProt P42338); assay: Kinase Glo Luminescent Kinase Assay (Kglo), assay B; assay type: biochemical; settings: read-out: Assay B PI3Kβ IC50
[6] = molecular target: mTOR (Homo sapiens, UniProt P42345); assay: Lanthascreen kinase binding assay, assay G; settings: read-out: Assay G mTOR IC50
Protocol: Lanthascreen™ Kinase Binding Assay for mTOR (G)
Binding of an inhibitor to the kinase competes for binding with the tracer, resulting in a loss of FRET.
50 nL of compound dilutions were dispensed onto white 384-well small volume polystyrene plate.

[7] = molecular target: PI 4-kinase beta (Homo sapiens, UniProt Q9UBF8); assay: Kinase Glo Luminescent Kinase Assay (Kglo), assay D; assay type: biochemical; settings: read-out: Assay D PI4Kβ IC50

Sequence of PI 3-kinase beta (P42338 whole entry): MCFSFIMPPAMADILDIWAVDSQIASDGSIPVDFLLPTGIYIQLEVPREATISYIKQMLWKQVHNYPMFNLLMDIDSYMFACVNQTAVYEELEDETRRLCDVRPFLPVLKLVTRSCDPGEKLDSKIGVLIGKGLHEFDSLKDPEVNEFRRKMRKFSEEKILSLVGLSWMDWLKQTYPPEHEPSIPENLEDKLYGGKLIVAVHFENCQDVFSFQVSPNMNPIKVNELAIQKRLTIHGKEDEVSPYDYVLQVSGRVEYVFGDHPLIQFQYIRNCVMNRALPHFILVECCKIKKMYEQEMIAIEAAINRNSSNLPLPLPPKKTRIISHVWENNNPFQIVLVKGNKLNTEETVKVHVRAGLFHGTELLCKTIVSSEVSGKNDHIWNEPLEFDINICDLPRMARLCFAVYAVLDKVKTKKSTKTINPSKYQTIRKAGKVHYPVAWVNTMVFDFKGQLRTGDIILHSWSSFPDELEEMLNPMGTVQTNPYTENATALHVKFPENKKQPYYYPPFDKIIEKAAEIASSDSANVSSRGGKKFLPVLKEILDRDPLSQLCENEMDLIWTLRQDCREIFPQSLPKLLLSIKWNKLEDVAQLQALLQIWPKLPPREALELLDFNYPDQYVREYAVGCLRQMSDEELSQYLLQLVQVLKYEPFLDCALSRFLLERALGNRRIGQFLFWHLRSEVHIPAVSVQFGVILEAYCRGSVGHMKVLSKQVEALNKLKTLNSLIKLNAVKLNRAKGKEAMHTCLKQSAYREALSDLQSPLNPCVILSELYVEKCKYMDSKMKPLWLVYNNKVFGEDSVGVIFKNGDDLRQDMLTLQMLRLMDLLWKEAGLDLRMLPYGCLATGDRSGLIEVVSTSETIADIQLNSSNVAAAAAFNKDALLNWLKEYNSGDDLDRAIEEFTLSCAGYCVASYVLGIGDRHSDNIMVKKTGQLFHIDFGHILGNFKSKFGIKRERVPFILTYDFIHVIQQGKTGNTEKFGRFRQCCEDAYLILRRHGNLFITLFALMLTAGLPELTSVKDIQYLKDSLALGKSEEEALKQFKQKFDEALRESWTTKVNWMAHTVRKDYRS
Sequence of PI 3-kinase beta (P27986 461-568 partner): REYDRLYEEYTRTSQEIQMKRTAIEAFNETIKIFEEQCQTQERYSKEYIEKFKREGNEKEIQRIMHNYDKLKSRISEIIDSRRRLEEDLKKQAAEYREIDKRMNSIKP
Sequence of PI 3-kinase delta (O00329 whole entry): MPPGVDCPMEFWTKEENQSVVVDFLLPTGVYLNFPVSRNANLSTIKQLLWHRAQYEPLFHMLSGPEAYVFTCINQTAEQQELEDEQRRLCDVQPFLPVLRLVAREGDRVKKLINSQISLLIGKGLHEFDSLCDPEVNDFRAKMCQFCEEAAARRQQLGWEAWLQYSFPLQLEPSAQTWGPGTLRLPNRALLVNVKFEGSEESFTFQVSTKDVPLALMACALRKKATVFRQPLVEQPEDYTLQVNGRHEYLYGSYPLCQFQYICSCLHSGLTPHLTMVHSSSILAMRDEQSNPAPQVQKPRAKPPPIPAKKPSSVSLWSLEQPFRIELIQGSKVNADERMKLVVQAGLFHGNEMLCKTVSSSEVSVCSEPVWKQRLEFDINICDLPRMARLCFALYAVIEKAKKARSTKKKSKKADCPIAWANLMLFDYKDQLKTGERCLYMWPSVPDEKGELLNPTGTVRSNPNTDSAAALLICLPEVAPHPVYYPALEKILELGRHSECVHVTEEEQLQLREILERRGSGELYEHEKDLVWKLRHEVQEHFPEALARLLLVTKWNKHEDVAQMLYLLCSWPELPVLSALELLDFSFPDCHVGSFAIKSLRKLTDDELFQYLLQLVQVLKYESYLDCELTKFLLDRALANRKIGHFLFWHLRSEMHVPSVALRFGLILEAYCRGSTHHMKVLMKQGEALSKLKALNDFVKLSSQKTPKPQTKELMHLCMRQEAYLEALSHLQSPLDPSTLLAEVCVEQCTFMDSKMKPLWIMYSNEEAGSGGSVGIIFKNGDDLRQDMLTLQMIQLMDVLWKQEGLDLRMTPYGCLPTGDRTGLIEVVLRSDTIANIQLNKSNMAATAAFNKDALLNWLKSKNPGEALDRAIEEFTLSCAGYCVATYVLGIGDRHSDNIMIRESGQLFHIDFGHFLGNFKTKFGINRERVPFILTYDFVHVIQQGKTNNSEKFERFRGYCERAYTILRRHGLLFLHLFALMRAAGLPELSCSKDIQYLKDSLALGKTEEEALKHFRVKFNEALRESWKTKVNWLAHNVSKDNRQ
Sequence of PI 3-kinase delta (P27986 461-568 partner): as the sequence (P27986 461-568 partner) above
Sequence of PI 3-kinase gamma (P48736 whole entry): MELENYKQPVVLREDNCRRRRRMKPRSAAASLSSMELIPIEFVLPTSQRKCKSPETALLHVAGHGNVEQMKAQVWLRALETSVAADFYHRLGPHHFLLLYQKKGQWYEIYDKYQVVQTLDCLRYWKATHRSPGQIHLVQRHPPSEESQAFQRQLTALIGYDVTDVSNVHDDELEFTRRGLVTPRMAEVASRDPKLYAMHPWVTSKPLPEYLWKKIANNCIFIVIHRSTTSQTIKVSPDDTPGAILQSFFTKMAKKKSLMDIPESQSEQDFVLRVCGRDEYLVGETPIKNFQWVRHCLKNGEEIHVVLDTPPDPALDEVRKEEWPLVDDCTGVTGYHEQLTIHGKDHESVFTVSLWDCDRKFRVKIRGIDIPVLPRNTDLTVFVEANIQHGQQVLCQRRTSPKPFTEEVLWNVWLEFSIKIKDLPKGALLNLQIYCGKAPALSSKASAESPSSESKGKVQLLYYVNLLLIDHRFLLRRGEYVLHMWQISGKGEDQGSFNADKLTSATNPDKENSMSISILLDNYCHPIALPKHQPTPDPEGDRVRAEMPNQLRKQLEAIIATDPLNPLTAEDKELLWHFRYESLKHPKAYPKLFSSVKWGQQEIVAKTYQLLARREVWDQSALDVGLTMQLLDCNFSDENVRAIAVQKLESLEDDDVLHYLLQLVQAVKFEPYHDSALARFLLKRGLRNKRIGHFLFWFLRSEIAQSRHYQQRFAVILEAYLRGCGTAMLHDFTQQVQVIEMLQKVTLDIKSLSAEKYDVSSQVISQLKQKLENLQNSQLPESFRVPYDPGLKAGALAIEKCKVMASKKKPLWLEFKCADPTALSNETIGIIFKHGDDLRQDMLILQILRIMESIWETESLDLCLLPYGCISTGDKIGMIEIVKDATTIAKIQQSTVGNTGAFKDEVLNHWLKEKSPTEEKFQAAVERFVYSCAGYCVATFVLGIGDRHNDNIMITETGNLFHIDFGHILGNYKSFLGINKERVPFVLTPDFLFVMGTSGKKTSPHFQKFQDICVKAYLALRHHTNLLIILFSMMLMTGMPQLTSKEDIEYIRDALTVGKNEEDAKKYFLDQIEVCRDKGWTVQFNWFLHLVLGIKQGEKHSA
Sequence of PI 3-kinase alpha (P42336 whole entry): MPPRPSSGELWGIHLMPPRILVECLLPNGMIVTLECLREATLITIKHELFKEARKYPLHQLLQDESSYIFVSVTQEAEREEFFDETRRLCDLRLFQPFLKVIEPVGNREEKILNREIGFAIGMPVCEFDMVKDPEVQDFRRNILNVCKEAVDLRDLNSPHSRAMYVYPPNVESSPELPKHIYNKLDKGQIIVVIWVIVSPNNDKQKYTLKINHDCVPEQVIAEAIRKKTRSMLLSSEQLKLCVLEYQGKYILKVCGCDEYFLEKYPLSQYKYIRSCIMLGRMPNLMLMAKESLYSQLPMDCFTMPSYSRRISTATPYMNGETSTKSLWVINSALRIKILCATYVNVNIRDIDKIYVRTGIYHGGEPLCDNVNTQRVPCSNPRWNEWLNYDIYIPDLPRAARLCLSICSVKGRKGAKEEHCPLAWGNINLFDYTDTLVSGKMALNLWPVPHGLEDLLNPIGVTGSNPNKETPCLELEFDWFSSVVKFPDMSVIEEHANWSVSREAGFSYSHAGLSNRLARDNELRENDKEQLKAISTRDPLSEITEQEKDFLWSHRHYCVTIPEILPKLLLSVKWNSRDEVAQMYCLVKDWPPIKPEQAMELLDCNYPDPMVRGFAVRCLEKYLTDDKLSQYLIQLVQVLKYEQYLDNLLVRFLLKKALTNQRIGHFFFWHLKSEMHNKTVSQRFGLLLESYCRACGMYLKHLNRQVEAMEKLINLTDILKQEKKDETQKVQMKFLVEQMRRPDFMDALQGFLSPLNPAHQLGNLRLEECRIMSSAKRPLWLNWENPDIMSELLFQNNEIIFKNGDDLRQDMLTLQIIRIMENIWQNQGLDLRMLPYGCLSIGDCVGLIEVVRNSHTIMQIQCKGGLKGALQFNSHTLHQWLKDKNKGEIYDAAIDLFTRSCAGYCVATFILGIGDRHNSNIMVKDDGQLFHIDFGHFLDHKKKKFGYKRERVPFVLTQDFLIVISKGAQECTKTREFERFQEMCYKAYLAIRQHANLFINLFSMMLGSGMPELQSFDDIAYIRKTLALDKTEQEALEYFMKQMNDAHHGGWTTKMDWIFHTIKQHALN

IC50 [1]	IC50 [2]	IC50 ([3]; read-out: Assay F PI3Kδ IC50)	IC50 [4]	IC50 [5]	IC50 [6]	IC50 [7]	IC50 [3]	Compound
0.041 µM	> 9.1 µM	1.2 µM	5.4 µM	> 9.1 µM	> 9.1 µM	> 9.1 µM	–	Cc1cc(-c2nc(-c3cc(S(=O)(=O)NCC4CCN(C)C4)ccc3C)cnc2N)ccn1 (centres unmarked) [Example 129.30, 3-(5-amino-6-(2-methylpyridin-4-yl)pyrazin-2-yl)-4-methyl-N-((1-methylpyrrolidin-3-yl)methyl)benzenesulfonamide]
0.066 µM	> 9.1 µM	2 µM	0.63 µM	> 9.1 µM	> 9.1 µM	> 9.1 µM	–	Cc1cc(-c2nc(-c3cc(S(=O)(=O)NCC4CCCCO4)ccc3C)cnc2N)ccn1 (centres unmarked) [Example 129.16, 3-(5-amino-6-(2-methylpyridin-4-yl)pyrazin-2-yl)-4-methyl-N-((tetrahydro-2H-pyran-2-yl)methyl)benzenesulfonamide]
0.11 µM	> 9.1 µM	0.29 µM	0.32 µM	8.5 µM	> 9.1 µM	> 9.1 µM	–	Cc1cc(-c2nc(-c3cc(S(=O)(=O)NC[C@@](C)(O)C(F)(F)F)ccc3C)cnc2N)ccn1 [Example 129.20, (R)-3-(5-amino-6-(2-methylpyridin-4-yl)pyrazin-2-yl)-4-methyl-N-(3,3,3-trifluoro-2-hydroxy-2-methylpropyl)benzenesulfonamide]
–	> 9.1 µM	–	–	–	> 9.1 µM	> 9.1 µM	–	Cc1ccc(S(=O)(=O)NCC(C)(C)CO)cc1-c1cnc(N)c(-c2nc(C3CC3)no2)n1 [Example 93, 3-(5-Amino-6-(3-cyclopropyl-1,2,4-oxadiazol-5-yl)pyrazin-2-yl)-N-(3-hydroxy-2,2-dimethylpropyl)-4-methylbenzenesulfonamide]
0.023 µM	> 10 µM	0.18 µM	0.15 µM	3.5 µM	> 10 µM	6.2 µM	–	Cc1ncc(-c2nc(-c3cc(S(=O)(=O)NCCC(C)(C)O)ccc3C)cnc2N)o1 [Example 119.40]
0.38 µM	> 9.1 µM	1.9 µM	2.8 µM	3.3 µM	> 9.1 µM	> 9.1 µM	–	CCN(CC)CCCNS(=O)(=O)c1ccc(C)c(-c2cnc(N)c(-c3ccnc(C)c3)n2)c1 [Example 129.23, 3-(5-amino-6-(2-methylpyridin-4-yl)pyrazin-2-yl)-N-(3-(diethylamino)propyl)-4-methylbenzenesulfonamide]
0.14 µM	> 10 µM	–	0.77 µM	1.5 µM	> 10 µM	7.6 µM	1.4 µM	Cc1ccc(S(=O)(=O)NC[C@@H]2CCC(C)(C)O2)cc1-c1cnc(N)c(-n2cncn2)n1 [Example 127.40]
0.13 µM	> 10 µM	1.7 µM	0.97 µM	5.1 µM	> 10 µM	5.3 µM	–	Cc1ccc(S(=O)(=O)N[C@@H]2CCOC2)cc1-c1cnc(N)c(-n2cncn2)n1 [Example 127.20]
0.03 µM	> 9.1 µM	0.1 µM	0.12 µM	6.47 µM	6.4 µM	> 9.1 µM	–	Cc1ccc(S(=O)(=O)NCCC(C)(C)O)cc1-c1cnc(N)c(-c2ccnc(F)c2)n1 [Example 119.10]
0.013 µM	> 9.1 µM	0.11 µM	0.17 µM	1.5 µM	2.88 µM	4.71 µM	–	Cc1nc(-c2nc(-c3cc(S(=O)(=O)NCCC(C)(C)O)ccc3C)cnc2N)cs1 [Example 119.30]
0.27 µM	> 10 µM	0.76 µM	0.98 µM	1.3 µM	> 10 µM	> 10 µM	–	Cc1ccc(S(=O)(=O)NCC2(O)CCCCC2)cc1-c1cnc(N)c(-n2cncn2)n1 [Example 127.11]
0.27 µM	> 9.1 µM	2.8 µM	0.74 µM	> 9.1 µM	> 9.1 µM	> 9.1 µM	–	CC[C@@H](CO)NS(=O)(=O)c1ccc(C)c(-c2cnc(N)c(-c3ccnc(C)c3)n2)c1 [Example 129.6, (S)-3-(5-amino-6-(2-methylpyridin-4-yl)pyrazin-2-yl)-N-(1-hydroxybutan-2-yl)-4-methylbenzenesulfonamide]
0.14 µM	> 10 µM	–	0.96 µM	0.73 µM	> 10 µM	3.3 µM	2.4 µM	Cc1ccc(S(=O)(=O)N[C@@H]2CNC[C@H]2O)cc1-c1cnc(N)c(-n2cncn2)n1 [Example 127.60, 3-(5-amino-6-(1H-1,2,4-triazol-1-yl)pyrazin-2-yl)-N-((3R,4R)-4-hydroxypyrrolidin-3-yl)-4-methylbenzenesulfonamide trifluoroacetic acid salt]
0.032 µM	> 10 µM	2.1 µM	0.84 µM	1.4 µM	5.6 µM	> 10 µM	–	Cc1ccc(S(=O)(=O)NCC2(CO)CCOCC2)cc1-c1cnc(N)c(-n2cncn2)n1 [Example 127.50]
–	1.1 µM	0.23 µM	–	0.53 µM	–	1.6 µM	–	Cc1ncc(-c2nc(-c3cc(S(=O)(=O)NCCO)ccc3C)cnc2N)s1 [Example 45, 3-(5-Amino-6-(2-methylthiazol-5-yl)pyrazin-2-yl)-N-(2-hydroxyethyl)-4-methylbenzenesulfonamide]
1 µM	> 10 µM	> 10 µM	6 µM	> 10 µM	> 10 µM	> 10 µM	–	Cc1ccc(S(=O)(=O)N2CC(F)(F)C(F)(F)C2)cc1-c1cnc(N)c(-n2cncn2)n1 [Example 127.8]
0.27 µM	> 9.1 µM	3.3 µM	0.9 µM	> 9.1 µM	7.8 µM	> 9.1 µM	–	CC[C@H](CO)NS(=O)(=O)c1ccc(C)c(-c2cnc(N)c(-c3ccnc(C)c3)n2)c1 [Example 129.7, (R)-3-(5-amino-6-(2-methylpyridin-4-yl)pyrazin-2-yl)-N-(1-hydroxybutan-2-yl)-4-methylbenzenesulfonamide]
1.1 µM	> 9.1 µM	4 µM	0.67 µM	6.4 µM	> 9.1 µM	> 9.1 µM	–	Cc1cc(-c2nc(-c3cc(S(=O)(=O)N4CC[C@@H](N)C4)ccc3C)cnc2N)ccn1 [Example 129.40, (R)-5-(5-(3-aminopyrrolidin-1-ylsulfonyl)-2-methylphenyl)-3-(2-methylpyridin-4-yl)pyrazin-2-amine]
0.12 µM	> 9.1 µM	0.8 µM	0.29 µM	1.8 µM	> 9.1 µM	6.7 µM	–	Cc1cc(-c2nc(-c3cc(S(=O)(=O)NCC4(C(N)=O)CCOCC4)ccc3C)cnc2N)ccn1 [Example 129.31, 4-((3-(5-amino-6-(2-methylpyridin-4-yl)pyrazin-2-yl)-4-methylphenylsulfonamido)methyl)tetrahydro-2H-pyran-4-carboxamide]
–	> 10 µM	–	–	1.09 µM	> 10 µM	6.5 µM	–	Cc1ccc(S(=O)(=O)NCC(C)(C)O)cc1-c1cnc(N)c(-c2cn(C)nc2C)n1 [Example 13]
0.32 µM	> 10 µM	5.5 µM	1.7 µM	9.2 µM	> 10 µM	> 10 µM	–	COCCCNS(=O)(=O)c1ccc(C)c(-c2cnc(N)c(-n3cncn3)n2)c1 [Example 127.10]
0.15 µM	> 9.1 µM	1.7 µM	2 µM	6.6 µM	> 9.1 µM	> 9.1 µM	–	Cc1cc(-c2nc(-c3cc(S(=O)(=O)NC[C@H]4CCC[C@@H](CN)C4)ccc3C)cnc2N)ccn1 [Example 129.42, 3-(5-amino-6-(2-methylpyridin-4-yl)pyrazin-2-yl)-N-(((1S,3R)-3-(aminomethyl)cyclohexyl)methyl)-4-methylbenzenesulfonamide]
0.59 µM	> 9.1 µM	1.6 µM	1.6 µM	1.7 µM	> 9.1 µM	> 9.1 µM	–	Cc1cc(-c2nc(-c3cc(S(=O)(=O)NCCN(C)C)ccc3C)cnc2N)ccn1 [Example 129.26, 3-(5-amino-6-(2-methylpyridin-4-yl)pyrazin-2-yl)-N-(2-(dimethylamino)ethyl)-4-methylbenzenesulfonamide]
1.6 µM	> 10 µM	3 µM	2.3 µM	> 10 µM	> 10 µM	> 10 µM	–	Cc1ccc(S(=O)(=O)NCCCCCO)cc1-c1cnc(N)c(-n2cncn2)n1 [Example 127.9]
0.015 µM	2.6 µM	0.1 µM	0.05 µM	0.39 µM	–	1.4 µM	–	Cc1ncc(-c2nc(-c3cc(S(=O)(=O)NCC4COCCN4C)ccc3C)cnc2N)s1 (centres unmarked) [Example 45.12, 3-(5-Amino-6-(2-methylthiazol-5-yl)pyrazin-2-yl)-4-methyl-N-((4-methylmorpholin-3-yl)methyl)benzenesulfonamide]
–	–	1.1 µM	–	2.2 µM	–	6.1 µM	–	Cc1cc(-c2nc(-c3cc(S(=O)(=O)NCC(C)(C)O)ccc3C)cnc2N)on1 [Example 88, 3-(5-Amino-6-(3-methylisoxazol-5-yl)pyrazin-2-yl)-N-(2-hydroxy-2-methylpropyl)-4-methylbenzenesulfonamide]
